According to US10363229B2, “Methods and compositions for the treatment of cancer” (priority 2009, dated 2019):

Legend:
[1] = system: neutrophils from healthy volunteers; assay: Apoptosis of normal neutrophils by Flow Cytometry; assay type: cell-based, human; details: 10% methyl sulfone, 20 hours
Procedure: Blood was drawn from healthy volunteers and white blood cells (e.g., lymphocytes, neutrophils) were enriched using Ficoll-Plaque. Cells were incubated in Petri dishes containing MEM with 7% fetal calf serum in a CO2 (5%) incubator at 37° C.; Methyl sulfone was present at concentrations of 0, 3, 6, or 10%. After 20 hours, cells were incubated with antibodies specific to T-lymphocytes (CD3 and CD4 T-cells), B-lymphocytes (B-cells) and neutrophils, and the percent of apoptotic cells was determined by Flow Cytometry. This is a technique that identifies specific cell types (e.g., CD3 T-cells, CD4 T-cells, B-cells, neutrophils) within a mixed population of blood cells, and then determines whether the cells are alive or apoptotic.
After 20 hours, cells were incubated with fluorescent antibodies to identify T-cells, B-cells and neutrophils, and then processed by Flow Cytometry (FIG. 15).

melanoma cells = assay: Senescence assay (β-galactosidase staining) and arborization; assay type: cell-based, mouse
Procedure: Senescence was assessed with the Senescence Cells Histochemical Staining Kit (Sigma).
During the first 2-3 weeks of incubating melanoma cells in 2% methyl sulfone, replacement of the 2% methyl sulfone medium with medium without drug reversed the phenotypes described above. Re-adding 2% methyl sulfone to the cells re-induced the non-malignant phenotypes. This cycle of reversal occurred until the cells were incubated with 2% methyl sulfone for more than three weeks. […] As a further test, we detached senescent cells from the culture dish by trypsinization and replated the cells in medium without methyl sulfone.
Mature melanocytes assume a morphology that is similar to neuronal cells by having a small area of cytoplasm surrounding the nucleus and long extensions called arbors. The primary function of melanocytes is to produce melanin and package the melanin in vesicles called melanosomes. Melanosomes are then transported to the tips of melanocytes arbors. These tips are phagocytized by keratinocytes, cells that sit near the skin's surface, and the newly acquired melanosomes form an umbrella-like shield around the nuclei of keratinocytes to protect these cells' DNA from UV-inducing mutations.

[2] = system: E-cadherin, β-catenin, N-cadherin and vimentin in melanoma cells; assay: Immunofluorescence of E-cadherin, β-catenin, N-cadherin and vimentin (ETM transition); assay type: cell-based, mouse; details: 2% methyl sulfone, 1 week
Procedure: Cells were plated onto 12 mm coverslips. When cells grew to 60 to 70% confluence, 2% methyl sulfone was added to half the coverslips and normal medium to other half. […] PBS for 30 seconds and fixed in 37° C. 4% paraformaldehyde for 10 minutes. Cells were washed in PBS for 5 minutes and incubated in 1% Triton X-100/PBS for 5 minutes. To block nonspecific sites, chicken serum was diluted 1/20 in PBS and added to cells for 30 minutes. Cells were washed 3 times in 0.1% Triton X-100/PBS, 3 minutes each.
Rabbit anti-E-cadherin antibody (Santa Cruz Biotech, Calif.) was diluted 1/100 in 5% BSA/PBS and added to the cells on coverslips for 2 hours. Cells were washed 5 times in 0.1% Triton X-100/PBS, 3 minutes each. Secondary antibody, Alexa Fluor 488 chicken anti-rabbit was diluted 1/200 in 5% BSA/PBS and added to coverslips for one hour in the dark. Cells were washed five times in 0.1% Triton X-100/PBS, three minutes each. Cells were washed in PBS for one minute and placed in Hoechst (1 mg/ml), diluted 1/1000, for 5 minutes. Cells were washed in PBS for one minute. SlowFade was added to slides, coverslips were placed face down and sealed with nail polish. […]

## methyl sulfone
[1]
  effect on neutrophils: unharmed
Melanoma cells; 2% methyl sulfone
  morphology of senescent melanoma cells (arborization): took on the morphology of mature melanocytes
  survival of arborized cells in culture: at least two months
Melanoma cells; 2% methyl sulfone for more than three weeks
  melanoma cells senescent (β-galactosidase activity): greater than 95%
Melanoma cells; senescent cells, 2% methyl sulfone removed
  senescence after replacing drug medium with control medium: remained senescent
[2]
  distribution of E-cadherin, β-catenin, N-cadherin and vimentin vs untreated: no significant differences
